In the supplement of paper PMC6045584:
± gives the standard deviation of the averaged measurements.

Legend:
[1] = compound: CNCc1ccc(-c2[nH]c3cc(F)cc4c3c2CCNC4=O)cc1; assay: surviving fraction relative to DMSO-only wells; higher = less growth inhibition; conditions: exposure time: 5 days
Procedure, shortened: (§1)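 Inhibitors were tested at 0.5, 1, 5, 10, 50, 100, 500 and 1000 nM, applied continuously for five days beginning 24 hours after log-phase tumour cells were seeded at 250–500 per well in 384-well plates. CellTiter-Glo luminescence served as the viability measure, expressed as surviving fraction against the median of DMSO-only wells. Each line, screened three times, was kept only with replicate Pearson r >0.7 and median Z' >0.3.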

[2] = compound: C[C@@H](Oc1cc(-c2cnn(C3CCNCC3)c2)cnc1N)c1c(Cl)ccc(F)c1Cl; assay: as above; conditions: exposure time: 5 days
Procedure, shortened: as §1

| Test System | surviving fraction ([1]; 0.5 nM) | surviving fraction ([1]; 1 nM) | surviving fraction ([1]; 5 nM) | surviving fraction ([1]; 10 nM) | surviving fraction ([1]; 50 nM) | surviving fraction ([1]; 100 nM) | surviving fraction ([1]; 500 nM) | surviving fraction ([1]; 1000 nM) | surviving fraction ([2]; 0.5 nM) | surviving fraction ([2]; 5 nM) | surviving fraction ([2]; 10 nM) | surviving fraction ([2]; 50 nM) | surviving fraction ([2]; 100 nM) | surviving fraction ([2]; 500 nM) | surviving fraction ([2]; 1000 nM) | surviving fraction ([2]; 1 nM) |
| --- | --- | --- | --- | --- | --- | --- | --- | --- | --- | --- | --- | --- | --- | --- | --- | --- |
| SCC003 HEADNECK | 1.03 ± 0.045 | 1.05 ± 0.016 | 1.1 ± 0.059 | 1.05 ± 0.078 | 1.07 ± 0.047 | 1.05 ± 0.091 | 0.99 ± 0.11 | 0.918 ± 0.057 | 0.763 ± 0.099 | 0.835 ± 0.042 | 0.818 ± 0.03 | 1.04 ± 0.047 | 0.982 ± 0.047 | 0.672 ± 0.081 | 0.417 ± 0.025 |  |
| SIHA CERVIX | 0.984 ± 0.028 | 1.06 ± 0.13 | 1.09 ± 0.03 | 1.01 ± 0.035 | 0.907 ± 0.064 | 0.934 ± 0.023 | 1.03 ± 0.021 | 0.832 ± 0.037 | 0.92 ± 0.038 |  | 0.931 ± 0.034 | 0.99 ± 0.011 | 1.07 ± 0.068 | 0.676 ± 0.042 | 0.628 ± 0.075 | 0.931 ± 0.01 |
| SYO1 SYNOVIAL | 0.954 ± 0.081 | 0.921 ± 0.022 | 0.842 ± 0.014 | 0.8 ± 0.019 | 0.655 ± 0.029 | 0.587 ± 0.032 | 0.455 ± 0.037 | 0.351 ± 0.04 | 0.814 ± 0.068 | 0.822 ± 0.031 | 0.781 ± 0.027 | 0.904 ± 0.01 | 0.829 ± 0.036 | 0.26 ± 0.063 | 0.123 ± 0.0083 | 0.821 ± 0.064 |
| RDES SOFT TISSUE | 1.15 ± 0.059 | 1.09 ± 0.17 | 1.02 ± 0.049 | 1.06 ± 0.042 | 0.918 ± 0.19 | 1.06 ± 0.089 | 1.14 ± 0.036 | 1.38 ± 0.15 | 0.735 ± 0.13 | 0.832 ± 0.028 | 0.69 ± 0.075 | 1.02 ± 0.19 | 0.926 ± 0.17 | 1.26 ± 0.02 | 0.127 ± 0.023 | 0.716 ± 0.093 |
| SG43 HEADNECK | 1.13 ± 0.22 | 1.05 ± 0.17 | 0.927 ± 0.14 | 0.82 ± 0.18 | 1.06 ± 0.26 | 1.13 ± 0.24 | 1.15 ± 0.14 | 1.46 ± 0.17 | 1.14 ± 0.1 |  | 1.09 ± 0.22 | 0.946 ± 0.37 | 0.816 ± 0.13 | 0.564 ± 0.14 | 0.256 ± 0.082 | 1.22 ± 0.16 |
| MCF7 BREAST | 0.923 ± 0.057 | 0.927 ± 0.072 | 0.921 ± 0.086 | 0.918 ± 0.084 | 0.951 ± 0.058 | 0.93 ± 0.081 | 0.865 ± 0.0098 | 0.924 ± 0.043 | 0.826 ± 0.063 | 0.827 ± 0.046 | 0.802 ± 0.03 | 0.89 ± 0.021 | 0.834 ± 0.034 | 0.755 ± 0.011 | 0.511 ± 0.017 | 0.818 ± 0.027 |
| HELA CERVIX | 1.09 ± 0.093 | 1.09 ± 0.08 | 1.08 ± 0.054 | 1.03 ± 0.07 | 1.16 ± 0.11 | 1.12 ± 0.16 | 1.14 ± 0.079 | 1.09 ± 0.071 | 0.969 ± 0.02 | 0.948 ± 0.018 | 0.895 ± 0.072 | 1.02 ± 0.027 | 1.06 ± 0.055 | 0.811 ± 0.05 | 0.258 ± 0.015 |  |
| VP229 BREAST | 1.15 ± 0.18 | 1.01 ± 0.14 | 1.04 ± 0.058 | 1.01 ± 0.12 | 0.954 ± 0.042 | 0.848 ± 0.076 | 0.823 ± 0.05 | 0.917 ± 0.067 | 0.809 ± 0.029 | 0.95 ± 0.11 | 0.777 ± 0.12 | 1.08 ± 0.098 |  |  | 0.544 ± 0.024 |  |
| 143B BONE | 1.02 ± 0.037 | 1.04 ± 0.011 | 1.07 ± 0.037 | 1.1 ± 0.073 | 1.11 ± 0.14 | 1.04 ± 0.046 | 1.07 ± 0.15 | 1.04 ± 0.067 | 0.997 ± 0.012 |  | 0.997 ± 0.012 |  | 1.002 ± 0.0092 | 0.811 ± 0.039 | 0.643 ± 0.061 |  |
| 22RV1 PROSTATE | 1.09 ± 0.051 | 1.13 ± 0.09 | 1.02 ± 0.075 | 0.968 ± 0.12 | 1.28 ± 0.32 | 1.04 ± 0.061 | 1.014 ± 0.0031 | 1.11 ± 0.24 | 0.954 ± 0.079 | 0.958 ± 0.022 | 0.944 ± 0.033 |  |  | 0.59 ± 0.078 | 0.406 ± 0.027 | 1.01 ± 0.02 |
| SAOS2 BONE | 1.12 ± 0.044 | 1.14 ± 0.08 | 1.14 ± 0.02 | 1.12 ± 0.16 | 0.844 ± 0.061 | 0.833 ± 0.069 | 0.747 ± 0.1 | 0.662 ± 0.021 | 0.7737 ± 0.0011 |  | 0.874 ± 0.036 | 1.06 ± 0.08 | 0.971 ± 0.046 | 0.319 ± 0.012 | 0.164 ± 0.012 | 0.866 ± 0.018 |
